From PubChem BioAssay AID1190 (EPA DSSTox, 2008)
Active and inactive are the calls of the source. No rule for the calls is given here.

What follows are compounds tested on dog and primate chronic carcinogenicity bioassays, TD50 (assay: DSSTox (CPDBAS) Carcinogenic Potency Database Summary Dog & Primates Bioassay Results).
Source text: The Carcinogenic Potency Database (CPDB) is a unique and widely used international resource of the results of over 6500 chronic, long-term animal cancer tests on over 1500 chemical substances. The CPDB provides easy access to the bioassay literature, with qualitative and quantitative analyses of both positive and negative experiments that have been published over the past 50 years in the general literature and by the National Cancer Institute/National Toxicology Program. The CPDB standardizes the diverse literature of cancer bioassays that vary widely in protocol, histopathological examination and nomenclature, and in the published author's choices of what information to provide in their papers. Results are reported in the CPDB for tests in rats, mice, hamsters, dogs, and nonhuman primates, and are based on the most positive result among all experiments for each sex-species. The DSSTox CPDBAS (all species) file incorporates data from the CPDB Summary Tables for the full list of over 1500 chemical substances tested in at least one species. Summary bioassay results for Dogs and Non-Human Primates (TD50, tumor sites) are provided in the CPDB Summary Tables and the DSSTox CPDBAS file for more than 30 chemical substances.
TD50 is a standardized quantitative measure of carcinogenic potency (analogous to an LD50) and is reported in the CPDB Summary Table for each species. Comments pertaining to the Dog or Primates (Cynomolgus, Rhesus, Bush Baby, Tree Shrew) TD50 (corresponding to footnote indices in the original CPDB Summary Table) are provided in the TD50_Dog_Primates_Note field. […] Target sites are reported for each species with a positive result in the CPDB on the basis of a positive author's opinion for the particular site and using all results from both the general literature and NCI/NTP bioassays. If a chemical has two or more target sites listed, the results may be from different experiments, and a single site may be a target organ in more than one experiment, as well. Blank entry in TargetSites field indicates no results reported.
CN(C)N=O was tested, and the outcome was “inactive; no positive results”. For C#C[C@]1(OC(C)=O)CC[C@H]2[C@@H]3CCC4=CC(=O)CC[C@@H]4[C@H]3CC[C@@]21C, the outcome was “inactive; no positive results”. With CN(N=O)C(N)=O the Potency was 7.18 mg/kg/day. CC(=O)Nc1ccc2c(c1)Cc1ccccc1-2 was tested, and the outcome was “inactive; no positive results”. For Nc1ccc(Cc2ccc(N)c(Cl)c2)cc1Cl, the outcome was “active”. With O=P1(N(CCCl)CCCl)NCCCO1 (stereo unspecified) the outcome was “inactive; no positive results”. With N[C@@H](Cc1ccc(N(CCCl)CCCl)cc1)C(=O)O the outcome was “active; no positive results”. Compound Nc1ccc2ccccc2c1 has a Potency of 5.74 mg/kg/day. In the case of COc1cc2c(c3oc4cccc(O)c4c(=O)c13)C1C=COC1O2 (stereo unspecified), the outcome is reported as “active”. For CCOC(N)=O, the Potency was 65.2 mg/kg/day. Compound C/[N+]([O-])=N/CO[C@@H]1O[C@H](CO)[C@@H](O)[C@H](O)[C@H]1O has a Potency of 0.0657 mg/kg/day. For CC(=O)Nc1ccc2c(c1)Cc1cc(NC(C)=O)ccc1-2, the outcome was “inactive; no positive results”. For Cc1cc(C)c(S(=O)(=O)O)cc1N=Nc1cc(S(=O)(=O)O)c2ccccc2c1O, the outcome was “inactive”. CNNCc1ccc(C(=O)NC(C)C)cc1 was tested, and the Potency was 4.21 mg/kg/day. For Nc1ccc(-c2ccc(N)c(Cl)c2)cc1Cl, the outcome was “active”. For O=[As](O)(O)O, the outcome was “inactive”. In the case of Cc1ccc2cc3c(ccc4ccccc43)c3c2c1CC3, the outcome is reported as “inactive; no positive results”. O=C1NS(=O)(=O)c2ccccc21 was tested, and the outcome was “inactive; no positive results”. Compound CCN(CC)N=O has a Potency of 0.0536 mg/kg/day. With C#C[C@@]1(O)CC[C@H]2[C@@H]3CCC4=CCCC[C@@H]4[C@H]3CC[C@@]21C the outcome was “active”. For Cn1c(N)nc2c3cccnc3ccc21, the outcome was “active”. Compound COc1cc2c(c3oc(=O)c4c(c13)CCC4=O)C1C=COC1O2 (stereo unspecified) has a Potency of 0.0082 mg/kg/day. In the case of CN(C)c1ccc(N=Nc2ccccc2)cc1, the outcome is reported as “inactive; no positive results”. Cc1cccc(N=Nc2ccc(N(C)C)cc2)c1 was tested, and the outcome was “inactive; no positive results”. With O=S(=O)(O)NC1CCCCC1 the outcome was “inactive; no positive results”. O=NN1CCCCC1 gave a Potency of 2.76 mg/kg/day. CCCN(CCC)N=O was tested, and the Potency was 0.0121 mg/kg/day. With Clc1ccc(C(c2ccc(Cl)cc2)C(Cl)(Cl)Cl)cc1 the outcome was “inactive; no positive results”. For ClC(Cl)Cl, the outcome was “inactive”. In the case of Cn1cnc([N+](=O)[O-])c1Sc1ncnc2nc[nH]c12, the outcome is reported as “inactive; no positive results”. In the case of COc1cccc2c1C(=O)c1c(O)c3c(c(O)c1C2=O)C[C@@](O)(C(=O)CO)C[C@@H]3O[C@H]1C[C@H](N)[C@H](O)[C@H](C)O1, the outcome is reported as “inactive; no positive results”.
